In brackets after ≈: the same amount, converted by molar mass. Several values for one entry are separate records, joined by “and”; a condition that tells them apart may be missing. Identical values can stand only once.
Assay: Solubility of the compound in organic solvents and eluents
Format: physicochemical
Settings: for Solubility (mg/mL) at 25°C / Solubility: 25°C
[1] = eluent hexane and dichloromethane at 6:4 (volume ratio)

SMILES | Solubility (mg/mL) at 25°C (Dichloromethane) | Solubility (mg/mL) at 25°C (Ethyl acetate) | Solubility (mg/mL) at 25°C (Toluene) | solubility in the used eluent [1] | Solubility (Example 4 eluent Hexane/ethyl acetate (volume ratio: 8:1)) | Solubility (Example 5 eluent Hexane/toluene (volume ratio: 2:1)) | Solubility (Example 6 eluent Hexane/THF (volume ratio: 8:1)) | Solubility (Example 7 eluent Hexane/acetone (volume ratio: 8:1)) | solubility in the used eluent (eluent hexane and ethyl acetate at 8:1 (volume ratio)) | solubility in the used eluent (eluent hexane and toluene at 3:2 (volume ratio))
c1ccc(N(c2ccccc2)c2ccc3[nH]c4ccc(N(c5ccccc5)c5ccccc5)cc4c3c2)cc1 [DACT-II precursor, N,N,N',N'-tetraphenyl-9H-carbazole-3,6-diamine] | 30 mg/mL (≈ 59.8 mM) | 4 mg/mL (≈ 7.97 mM) | 10 mg/mL (≈ 19.9 mM) | 3000 µg/mL |  |  |  |  |  | 
c1ccc(-c2nc(-c3ccccc3)nc(-c3ccc(-n4c5ccc(N(c6ccccc6)c6ccccc6)cc5c5cc(N(c6ccccc6)c6ccccc6)ccc54)cc3)n2)cc1 [DACT-II, 9-[4-(4,6-diphenyl-1,3,5-triazin-2-yl)phenyl]-N,N,N',N'-tetraphenyl-9H-carbazole-3,6-diamine] | 100 mg/mL (≈ 124 mM) | 6 mg/mL (≈ 7.42 mM) | 30 mg/mL (≈ 37.1 mM) | 3000 µg/mL | <1100 µg/mL | <5900 µg/mL | <2100 µg/mL | <300 µg/mL | 1000 µg/mL and 1100 µg/mL | 5000 µg/mL

Reference: patent publication EP4741818A1, “COMPOUND TREATMENT METHOD, METHOD FOR PRODUCING COMPOUND OR REACTION PRODUCT OF SAME, SYSTEM FOR TREATING COMPOUND, AND REPLACEMENT TREATMENT COLUMN” (Flugelz Co., Ltd., priority 2023, dated 2025)
